{"source": "patent US20260098017A1", "about": "“NOVEL AROMATIC RING DERIVATIVE CONTAINING AMIDE SUBSTITUTION AND USE THEREOF” (TIANJIN PHARMACEUTICAL BIOTECHNOLOGY CO., LTD., priority 2022, published 2026)", "key": {"[1]": {"test_system": "SD rats", "assay": "Four-week repeat-dose toxicity study in rats", "type": "in vivo", "conditions": "rat, 28 days, po bid, 50 mg/kg", "protocol": "Each group contained 10 animals, with an equal number of males and females.\nThe treatment lasted for four consecutive weeks (28 days).\n• Daily clinical observation and body weight measurement; • After the last administration, rats were fasted for more than 16 h, anesthetized on the next day, and blood was collected from abdominal aorta. Tests such as hematology (EDTA-2K anticoagulation), blood biochemistry (serum), coagulation function (separated plasma with sodium citrate anticoagulation) and the like were respectively carried out; • After euthanization of the animals, the tissue organs were dissected and observed in general, and organ weights and coefficients (heart, liver, spleen, kidney, thymus) were determined; • The skin and lung tissues of the administration site were taken for HE staining to observe the changes in epidermal thickness, dermal inflammatory cells and pulmonary lesions."}, "[2]": {"target": "JAK3 JH1 kinase (Homo sapiens, UniProt P52333)", "sequence (P52333 822-1111 limits assumed)": "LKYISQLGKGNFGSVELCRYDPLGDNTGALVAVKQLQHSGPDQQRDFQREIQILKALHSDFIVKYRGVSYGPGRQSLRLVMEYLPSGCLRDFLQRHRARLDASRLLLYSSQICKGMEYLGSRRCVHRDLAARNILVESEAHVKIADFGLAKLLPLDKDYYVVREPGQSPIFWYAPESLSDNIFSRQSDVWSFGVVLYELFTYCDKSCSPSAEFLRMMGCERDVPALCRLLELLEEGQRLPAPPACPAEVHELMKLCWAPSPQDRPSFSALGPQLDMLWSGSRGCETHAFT", "assay": "JAK3 JH1 enzyme assay in vitro (TR-FRET)", "type": "biochemical"}, "[3]": {"test_system": "imiquimod-induced mouse psoriasis-like model", "assay": "Imiquimod-induced mouse psoriasis-like model (PASI score)", "type": "in vivo", "conditions": "bid"}, "[4]": {"target": "T1, hERG channel (Homo sapiens, UniProt Q12809)", "T1 construct": "expressed in transfected cells; host or cells: HEK-293", "T1 sequence (Q12809 whole entry)": "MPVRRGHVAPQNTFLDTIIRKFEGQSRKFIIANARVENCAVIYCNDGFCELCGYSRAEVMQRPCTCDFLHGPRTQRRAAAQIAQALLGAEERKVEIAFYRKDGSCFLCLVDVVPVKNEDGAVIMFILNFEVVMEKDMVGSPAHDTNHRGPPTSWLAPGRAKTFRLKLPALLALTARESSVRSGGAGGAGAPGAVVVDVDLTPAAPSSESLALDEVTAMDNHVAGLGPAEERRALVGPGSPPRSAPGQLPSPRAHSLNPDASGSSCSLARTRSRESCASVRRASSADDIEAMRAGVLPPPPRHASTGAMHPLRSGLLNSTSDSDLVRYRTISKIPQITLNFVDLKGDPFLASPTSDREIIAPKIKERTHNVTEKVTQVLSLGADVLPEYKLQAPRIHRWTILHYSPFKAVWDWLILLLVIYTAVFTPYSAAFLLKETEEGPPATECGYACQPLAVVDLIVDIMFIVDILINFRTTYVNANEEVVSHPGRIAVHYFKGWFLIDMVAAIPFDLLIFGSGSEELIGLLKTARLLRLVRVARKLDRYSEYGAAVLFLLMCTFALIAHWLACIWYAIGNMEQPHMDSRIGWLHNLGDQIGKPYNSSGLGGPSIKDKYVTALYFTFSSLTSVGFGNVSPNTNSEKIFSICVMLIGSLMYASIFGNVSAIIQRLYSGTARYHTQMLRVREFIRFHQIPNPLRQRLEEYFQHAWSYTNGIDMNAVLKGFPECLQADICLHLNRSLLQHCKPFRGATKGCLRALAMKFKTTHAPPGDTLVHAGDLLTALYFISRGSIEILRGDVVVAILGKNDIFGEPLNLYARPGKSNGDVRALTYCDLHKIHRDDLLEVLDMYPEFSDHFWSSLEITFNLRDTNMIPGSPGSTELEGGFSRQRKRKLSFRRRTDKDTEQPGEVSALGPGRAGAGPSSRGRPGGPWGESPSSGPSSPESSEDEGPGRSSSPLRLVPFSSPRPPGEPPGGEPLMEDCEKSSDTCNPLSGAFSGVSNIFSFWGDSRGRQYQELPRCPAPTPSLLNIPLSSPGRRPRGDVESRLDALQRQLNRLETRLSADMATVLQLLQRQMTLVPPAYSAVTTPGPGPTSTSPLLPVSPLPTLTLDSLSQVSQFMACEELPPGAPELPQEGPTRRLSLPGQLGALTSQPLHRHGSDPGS", "assay": "hERG potassium channel inhibition assay (manual patch clamp)", "type": "cell-based", "conditions": "HEK-293 cell line stably expressing hERG channel, at the tested concentrations", "protocol": "Instrumentation: HEKA EPC 10 patch clamp amplifier.\nMethod: in this experiment, the blocking effect of the compounds on the current of the HEK-293 cell line stably expressing hERG channel was measured using the manual patch clamp technique, and the risk of the compounds on the inhibition of cardiac hERG potassium channel was assessed by fitting the concentration effect relationship.\nProcedure: in the patch clamp operation, firstly, a capillary glass tube was pulled into a recording electrode using a microelectrode puller, then an electrode filled with intracellular solution was mounted into a microelectrode holder. A microelectrode manipulator was operated under an inverted microscope to immerse the electrode into an extracellular solution and the electrode resistance (Rpip) was recorded. Then, the electrode was slowly brought into contact with the cell surface, and a negative pressure was applied for suction to form a GΩ seal. At this point, a fast capacitance compensation was performed, and a negative pressure was continuously applied to suck and break the cell membrane to form a whole cell recording mode. Finally, a slow capacitance compensation was performed and experimental parameters including series resistance (Rs) and the like were recorded. No leakage compensation was performed. When the hERG current recorded by the whole cell was stable, the administration of drugs commenced, and each drug concentration acted for about 5 min (or until the current stabilization) before detecting the next concentration. A cover glass covered with cells was placed in a recording bath under an inverted microscope, the blank control extracellular solution and the working solution of the compounds to be tested sequentially flowed through the recording bath from low concentration to high concentration by using gravity perfusion to act on the cells, and solution exchange was performed using a peristaltic pump during recording. The current measured by each cell in the extracellular solution without the compound served as its own control group. Each concentration was independently assessed twice. All electrophysiological tests were performed at room temperature.\nData Analysis: firstly, the tail current (Peak tail currentcompound) after the action of each drug concentration and the blank control tail current (Peak tail currentcontrol) were normalized, then the inhibition rate\ncorresponding to each drug concentration was calculated, and the mean (Mean), standard deviation (SD) and standard error (SE) of the inhibition rate corresponding to each concentration were calculated, with data expressed as Mean±SE. The calculation of IC50 value and the fitting of dose-response curve for the compound were performed using GraphPad Prism software."}, "[5]": {"target": "JAK2 JH1 kinase (Homo sapiens, UniProt O60674)", "sequence (O60674 849-1124 limits assumed)": "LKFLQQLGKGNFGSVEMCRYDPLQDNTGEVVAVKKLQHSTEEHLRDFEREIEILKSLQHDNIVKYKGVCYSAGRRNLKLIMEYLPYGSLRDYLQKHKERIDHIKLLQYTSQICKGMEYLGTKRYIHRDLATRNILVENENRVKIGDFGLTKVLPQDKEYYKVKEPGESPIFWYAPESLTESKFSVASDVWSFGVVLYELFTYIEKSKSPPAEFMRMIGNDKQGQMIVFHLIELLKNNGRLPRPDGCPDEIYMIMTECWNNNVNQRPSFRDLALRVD", "assay": "JAK2 JH1 enzyme assay in vitro (TR-FRET)", "type": "biochemical", "conditions": "read-out: JAK 2 JH1 IC50"}, "[6]": {"target": "T2, TYK2 JH1 kinase (Homo sapiens, UniProt P29597)", "T2 sequence (P29597 897-1176 limits assumed)": "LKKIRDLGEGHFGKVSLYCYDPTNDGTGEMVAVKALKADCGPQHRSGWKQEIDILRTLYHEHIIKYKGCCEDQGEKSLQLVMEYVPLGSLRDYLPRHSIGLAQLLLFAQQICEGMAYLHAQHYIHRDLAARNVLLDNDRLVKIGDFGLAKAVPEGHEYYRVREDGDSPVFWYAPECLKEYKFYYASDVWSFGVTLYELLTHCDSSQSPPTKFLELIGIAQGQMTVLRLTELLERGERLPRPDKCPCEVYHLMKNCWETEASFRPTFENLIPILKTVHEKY", "assay": "TYK2 JH1 enzyme assay in vitro (TR-FRET)", "type": "biochemical"}, "[7]": {"target": "Ba/F3 cell line expressing TYK2 (Homo sapiens, UniProt P29597, cells depend on it, form not given)", "assay": "In vitro cellular inhibition assay (Ba/F3 cell proliferation, CellTiter-Glo)", "type": "cell-based", "conditions": "read-out: IC50 (the source's name)", "how_it_was_run": "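Ba/F3 cells dependent on TYK2 were exposed to serially diluted compound, then viability was read by CellTiter-Glo luminescence. Inhibition (%) was calculated from RLU relative to max and min controls, and IC50 was obtained by curve fitting.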"}, "[8]": {"target": "JAK1 JH2 pseudokinase (Homo sapiens, UniProt P23458)", "sequence (P23458 583-855 limits assumed)": "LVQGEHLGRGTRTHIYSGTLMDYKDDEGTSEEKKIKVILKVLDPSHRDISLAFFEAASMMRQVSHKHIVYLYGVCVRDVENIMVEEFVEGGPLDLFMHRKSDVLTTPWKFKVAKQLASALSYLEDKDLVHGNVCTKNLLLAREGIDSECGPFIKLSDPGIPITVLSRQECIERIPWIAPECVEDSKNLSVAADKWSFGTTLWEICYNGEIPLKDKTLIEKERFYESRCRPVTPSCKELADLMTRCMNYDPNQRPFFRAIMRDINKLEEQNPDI", "assay": "JAK1 JH2 enzyme binding assay in vitro (TR-FRET)", "conditions": "read-out: JAK 1 JH2 IC50", "protocol": "Instrumentation: Envision microplate reader (PerkinElmer), Echo (LABCYTE)\nMethod: in this experiment, the inhibitory effects of compounds on JAK1 JH2 pseudokinase was tested using time-resolved fluorescence resonance energy transfer (TR-FRET) method.\nProcedure: compounds were prepared into 10 mM stock solutions using DMSO, which were further diluted into compound dilutions with different concentration gradients in DMSO, and the compound dilutions with 200× final concentration were transferred to a 384-well assay plate using an Echo instrument. The preparation of the following 1× assay working solution: HEPES pH7.5 at a final concentration of 20 mM, MgCl2 at a final concentration of 10 mM, Brij-35 at a final concentration of 0.015%, DTT at a final concentration of 2 mM, BSA at a final concentration of 50 ug/mL. JAK1 JH2 pseudokinase with 3× final concentration, Tb antibody and Tracer were prepared using their respective 1× working solution. 5 uL of JAK1 JH2 pseudokinase was added to a 384-well assay plate, and centrifuged at 1000 rpm for 30 s. 5 uL of Tb antibody was added to the 384-well assay plate, and centrifuged at 1000 rpm for 30 s. 5 uL of Tracer was added to the 384-well assay plate, and centrifuged at 1000 rpm for 30 s. Incubation was performed at room temperature for 60 min, and then at 4° C. overnight. Finally, the 495 nm/520 nm fluorescence signal ratio was measured using the Envision microplate reader (PerkinElmer).\nData Analysis: XLfit, a software developed by IDBS and integrated into the Microsoft Excel environment, was used to process and analyze the test data. […] Thereafter, the concentration and corresponding inhibition rate data were imported into the XLfit software, and the Dose Response One Site 205 model within the software was employed to fit the inhibition rate-concentration curve by four-parameter method, and the IC50 value of the compound was calculated."}, "[9]": {"target": "JAK1 JH1 kinase (Homo sapiens, UniProt P23458)", "sequence (P23458 875-1153 limits assumed)": "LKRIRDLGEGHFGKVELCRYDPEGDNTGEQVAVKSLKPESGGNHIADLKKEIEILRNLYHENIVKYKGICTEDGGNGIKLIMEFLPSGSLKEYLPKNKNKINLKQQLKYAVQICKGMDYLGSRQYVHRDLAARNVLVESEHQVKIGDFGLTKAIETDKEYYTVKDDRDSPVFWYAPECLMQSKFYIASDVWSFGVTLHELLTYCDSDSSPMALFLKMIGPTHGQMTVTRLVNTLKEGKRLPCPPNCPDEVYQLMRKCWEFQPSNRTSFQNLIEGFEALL", "assay": "JAK1 JH1 enzyme assay in vitro (TR-FRET)", "type": "biochemical", "conditions": "read-out: JAK 1 JH1 IC50"}, "[10]": {"target": "TYK2 JH2 pseudokinase (Homo sapiens, UniProt P29597)", "sequence (P29597 589-875 limits assumed)": "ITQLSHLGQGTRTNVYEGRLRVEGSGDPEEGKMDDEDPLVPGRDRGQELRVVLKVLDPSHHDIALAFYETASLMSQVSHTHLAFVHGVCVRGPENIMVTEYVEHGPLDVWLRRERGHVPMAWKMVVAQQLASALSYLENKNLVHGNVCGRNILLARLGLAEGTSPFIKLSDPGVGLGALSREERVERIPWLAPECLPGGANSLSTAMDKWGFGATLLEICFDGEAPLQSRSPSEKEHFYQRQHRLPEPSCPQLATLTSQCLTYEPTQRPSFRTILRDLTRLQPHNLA", "assay": "TYK2 JH2 enzyme binding assay in vitro (TR-FRET)", "protocol": "Instrumentation: Envision microplate reader (PerkinElmer), ECHO550 (LABCYTE).\nMethod: the inhibitory effects of compounds on TYK2 JH2 pseudokinase was tested using time-resolved fluorescence resonance energy transfer (TR-FRET) method.\nProcedure: compounds were prepared into 10 mM stock solutions using DMSO, which were further diluted into compound dilutions (200×) with different concentration gradients in DMSO, and the compound dilutions (200×) were transferred to a 384-well assay plate using an Echo instrument. […] TYK2 JH2 pseudokinase, Tb antibody, and Tracer working solutions were prepared using the dilution buffer, respectively. 5 uL of TYK2 JH2 pseudokinase working solution (final concentration 0.5 nM) was added to a 384-well assay plate, and centrifuged at 1000 rpm for 30 s. 5 uL of Tb antibody (final concentration 1×) was added to the 384-well assay plate, and centrifuged at 1000 rpm for 30 s. 5 uL of Tracer (final concentration 0.5 nM) was added to the 384-well assay plate, and centrifuged at 1000 rpm for 30 s. Incubation was performed at room temperature for 60 min, and then at 4° C. overnight.\nData Analysis: XLfit, a software developed by IDBS and integrated into the Microsoft Excel environment, was used to process and analyze the test data."}}, "note": "Read-outs that look alike come from different tables or passages of the source. Marks after values point to notes of the source that are not given here."}
{"smiles": "[2H]C([2H])([2H])NC(=O)c1nnc(NC(=O)C2CC2)cc1Nc1cccc(-c2ncn(C)n2)c1OC([2H])([2H])[2H]", "note": "[BMS-986165, reference compound]", "values": [{"measurement": "Hematology Gran", "setting": "[1]", "value": "1.6 ± 0.6 ×10^9/L"}, {"measurement": "Hematology Lymph", "setting": "[1]", "value": "3.6 ± 0.8 ×10^9/L"}, {"measurement": "Hematology Mono", "setting": "[1]", "value": "0.2 ± 0.0 ×10^9/L"}, {"measurement": "IC50", "setting": "[2]", "value": "> 10000", "unit": "nM"}, {"measurement": "Percentage reduction in PASI score %", "setting": "[3]; day 7, 10 mg/kg, oral, day 1 to 6", "value": "30.1** %"}]}
{"smiles": "[2H]C([2H])([2H])NC(=O)c1cnc(NC(=O)C2CC2)cc1Nc1cccc(C(=O)Nc2cncc(C)c2)c1OC", "note": "[Example 91]", "values": [{"measurement": "hERG inhibition", "setting": "[4]", "value": "no significant inhibition"}, {"measurement": "IC50", "setting": "[2]; TR-FRET, read-out: JAK 3 JH1 IC50", "value": "> 10000", "unit": "nM"}, {"measurement": "Improvement of psoriasis symptoms by oral administration", "setting": "[3]; oral gavage, 10 mg/kg, 25 mg/kg, 50 mg/kg, compared with the model group", "value": "effectively improve psoriasis symptoms"}, {"measurement": "IC50", "setting": "[5]", "value": "> 10000", "unit": "nM"}, {"measurement": "IC50", "setting": "[6]", "value": "> 10000", "unit": "nM"}, {"measurement": "GI50", "setting": "[7]", "value": "1 to 5", "unit": "nM"}, {"measurement": "IC50", "setting": "[8]", "value": 3.29, "unit": "nM"}, {"measurement": "IC50", "setting": "[9]", "value": "> 10000", "unit": "nM"}, {"measurement": "IC50", "setting": "[10]", "value": 0.312, "unit": "nM"}]}
